Data taken from patent US20050187409A1, “Inhibitors of RNase P proteins as antibacterial compounds” (priority 2003, published 2005).
≈ marks a conversion by molar mass, not a printed value. Where “and” joins values, the source holds several entries; their conditions need not be identical. Equal values may be shown once. Read-outs that look alike come from different tables or passages of the source.

Experiments:
S. pyogenes = test: Bacterial inhibition assay (growth, OD readout); assay type: cell-based; settings: CAMHB-3% LHB medium, 35° C., 16-20 hours
Procedure: (§1) Compounds of the invention (see Table 5) were assayed for their ability to inhibit bacterial growth. Compounds were diluted from 10 mM DMSO stocks to 3 mM and 1 mM in DMSO. The compounds were further diluted from these stocks into saline for 200, 120, and 20 μM stocks. Control antibiotics were diluted similarly. Overnight cultures of bacteria were made in the following manner. N. gonorrhea was streaked onto a chocolate agar plate and incubated at 35° C./5% CO2. Rather than make an overnight culture of S. pyogenes, a loopful of S. pyogenes from a blood plate or a stock plate was used the following day for direct cell suspension.
(§2) On the following day bacteria were prepared by dilution into saline with O.D. […] readings taken to determine the concentration of the bacteria. CFUs (colony forming units) were determined using the formula: CFU/mL=OD625×(1.5×10^8 CFU/mL/OD McFarland std)×dilution. The four bacterial cultures were diluted initially to 5.5×10^7 CFU/mL. The bacteria were then further diluted into medium to 5.5×10^5 CFU/mL for S. pyogenes and 5.5×10^6 CFU/mL for N. gonorrhea. S. pyogenes and N. gonorrhea were grown in CAMHB-3% LHB medium. The bacteria were added one per plate at 200 μL per well. Compounds were added in 10 μL aliquots for final concentrations of 10, 3, and 1 μM in duplicate. Control antibiotics, penicillin for S. pyogenes and ciprofloxacin for N. gonorrhea, were added from 0.8 mg/ml to 0.003 mg/ml. Plates were incubated at 35° C. with O2 for 16-20 hours for S. pyogenes, and read at OD665 in a Victor2 plate reader. Plates were incubated at 35° C. with 5% CO2 for 24 hours for N. gonorrhea at which time 40 μL of MTS reagent is added per well and incubated for 1 hour in same incubator. The plates were read at OD490. Compounds were tested at 1 μM, 3 μM, and 10 μM concentrations. The results, which are expressed as a percentage of the control, were calculated using equation 2. In this equation, O.D. is optical density; (O.D. compounds+bacteria) is the optical density observed for bacteria grown in the presence of a compound of the invention; (O.D. blank) is the optical density in the absence of bacteria; and (O.D. bacteria) is the optical density observed for bacteria growing uninhibited. Other RNase P inhibitors may be tested similarly using any bacteria of interest. [formula]

[1] = target: T1, N. gonorrhoeae RNase P holoenzyme (Neisseria gonorrhoeae, UniProt Q5F4W3); test: biochemical; settings: 32P-labelled pGln substrate, room temperature; read-out: N. gonorrhoeae Gel assay IC50(μM) (Example 16)
T1 sequence (Q5F4W3 1-121): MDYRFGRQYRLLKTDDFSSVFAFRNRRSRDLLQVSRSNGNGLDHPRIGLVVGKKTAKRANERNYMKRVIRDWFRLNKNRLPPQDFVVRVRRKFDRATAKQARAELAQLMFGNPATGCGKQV
Procedure: RNase P Inhibition Polyacrylamide Gel Assay
The substrate, the precursor of tRNA^Gln, (pGln), from Synechocystis (Pascual and Vioque, 1999), was synthesized in vitro from the corresponding cDNA by T7 RNA polymerase in the presence of α^32P-GTP. Each control RNase P reaction of 10 μl contained 50 mM Tris-HCl (pH 7.8), 10 mM MgCl2, 100 mM NH4Cl, 1 mM dithiothreitol, and 0.4-1.0 pmol pGln substrate, radiolabeled to a specific activity of 1000-10,000 cpm/pmol. The reaction mixture, containing 0.1-1 nM holoenzyme, was incubated for 5-60 min at room temperature (18-24° C.), and the reaction was terminated by addition of an equal volume of 40 mM EDTA/8 M urea. The samples were electrophoresed in denaturing 8% polyacrylamide gels. The activity was quantified by exposure of the gel to a phosphorimaging screen. For test reactions that require the addition of compounds, the RNA subunits were pre-incubated with compound for 10 min at room temperature in the presence of buffer, followed by addition of the protein subunit. After a further 10 minutes of incubation, the radiolabeled substrate was added, and the reaction initiated. Products were analyzed as just described. The IC50 was the concentration of compound that was required to inhibit RNase P activity by 50%.

[2] = target: N. gonorrhea RNase P (M1 RNA + C5 protein) (Neisseria gonorrhoeae, UniProt Q5F4W3); test: Time resolved fluorescence (TRF) RNase P inhibition assay; assay type: biochemical; settings: 30 min enzyme reaction, ptGLN substrate
From the text: The ability of compounds of the invention to inhibit RNase P enzymes can be assessed by standard techniques. For example, the cleavage of ptRNA^Gln by the enzyme N. Gonorrhea RNase P, can be monitored in the presence and absence of a candidate compound as described in the Example 15. The progress of the RNase P-mediated cleavage reaction can be assessed by measuring the […] hybridized to the cleaved substrate.
Time Resolved Fluorescence RNase P Inhibition Assay
96-well Nunc MaxiSorp FluoroNunc plates were coated with 50 μl/well of 1 μg/ml of streptavidin in base buffer (150 mM KCl, 5 mM MgCl2, 50 mM Tris, pH 7.6) and incubated overnight. The plates were washed using TRF.96 protocol, and then blocked with 150 μl of a 1 mg/ml BSA solution in base buffer and incubated with shaking for sixty minutes. The plates were then washed twice with base buffer plus 0.01% Tween20. 50 μl of 40 nM T17-bt (biotinylated DNA oligonucleotide complementary to the RNaseP substrate leader sequence used to capture intact RNaseP substrate) was then added to all wells, and the plates were incubated with shaking for 1 hr.
A 0.4 nM solution of N. gonorrhea M1 RNA was made from a 1 μM stock solution. A 0.5 nM solution of N. gonorrhea C5 protein is made by diluting a 10 μM stock. ΔUL-ptGLN UTP-bt (10 μM stock) was diluted into PA buffer for a concentration of 40 nM.
Compounds were serially diluted in DMSO from 20 mM stocks to 6, 2, 0.6, 0.2, and 0.06 mM dilutions. These titrations were then diluted (2 μl to 100) in PA buffer, and 12.5 μl of each concentration was added in duplicate to a 96-well V-bottom polypropylene plate. The highest concentration was put in row G and the lowest in row B. Rows A & H received 12.5 μl of DMSO/PA buffer.
The enzyme reaction was initiated in the V-bottom polypropylene plates containing compound dilutions by adding 12.5 μl of the N. gonorrhea M1 solution to rows A-G. PA buffer was added to row H. 12.5 μl of the C5 solution was added similarly to the M1 solutions. 12.5 μl of the substrate solution was then added to all wells. The plates were incubated for 30 minutes at which time 12.5 μl of stop buffer was added to all wells. (Stop buffer: 500 μg/ml polyC/50 nM SA-Eu in 335 mM MgCl2 PA buffer).
The T17-biotin-coated plate was washed three times, and 37.5 μl of 75 mM MgCl2 PA buffer was added to each well. After 30 minutes incubation with the stop buffer, 12.5 μl from all of the enzyme reaction wells was transferred to the T17 plates. The plates were then incubated for 1.5 hr at room temperature with shaking. The plates were washed three times and 40 μl of Delfia enhancement solution (Wallac Oy) was added to all wells. The plates were then read on the Victor 2 plate reader.

[3] = Cellular toxicity assay (MTS) on PBMC; assay type: cell-based, human; settings: human, peripheral blood mononuclear cells (PBMC); 24 hours incubation, MTS reagent; read-out: PBMC's TC50
Procedure: Compounds of the invention (see Table 6) were assayed for cellular toxicity as follows. Whole blood was drawn from a volunteer, and the red cells were separated from the buffy coat cells by centrifugation over ficoll-paque. The resulting peripheral blood mononuclear cells (PBMC) were collected from the interface and washed extensively with PBS by centrifugation to remove platelets and cellular debris. The cells were then plated in 96-well tissue culture plates at a density of 5×10^5 cells per mL at 200 μL per well. After an hour incubation, the candidate compounds were added at the appropriate concentrations diluted from DMSO stocks into assay buffer (RPMI medium supplemented with 10% FCS). The cells were incubated at 37° C., 100% humidity and 5% CO2 for 24 hours at which time MTS reagent was added per the manufacturer's (Promega) instructions. After 2-3 hours incubation the optical density of the wells was read on a spectrophotometer. […] The data are evaluated using equation 2 as described in Example 17, where bacterial cells are replaced by PBMC cells in the measurements. The data describes the toxicity of these compounds to a representative human cell population (PBMC's).

N. gonorrhoeae = test: Bacterial inhibition assay (growth, MTS readout); assay type: cell-based; settings: CAMHB-3% LHB medium, 35° C., 5% CO2, 24 hours
Procedure: as §1, §2

[4] = read-out: N. gonorrhoeae TRF IC50(μM) (Example 15)

Compound	MIC (S. pyogenes; Streptococcus pyogenes) [µM]	IC50 [1]	IC50 [2, 4] [µM]	CC50 at 24 h [3] [µM]	MIC (N. gonorrhoeae; Neisseria gonorrhoeae) [µM]	IC50 ([2]; N. gonorrhoeae TRF IC50(μM) (Example 15)) [µM]	MIC (S. pyogenes) [µM]	MIC (N. gonorrhoeae) [µM]	S. pyogenes MIC(μM) (S. pyogenes)
CC(=NNC(=N)N)c1ccc(C(=O)Nc2cccc(C(C)=NNC(=N)N)c2)cc1 [MES 10648, Bisguanylhydrazone of 4-acetyl-N-(3-acetylphenyl)benzamide]	1 (≈ 0.393 µg/mL)	2 µM	5	> 100	10 (≈ 3.93 µg/mL)	–	–	–	–
CC(=NNC(=N)N)c1cccc(NC(=O)[C@@H]2Cc3ccccc3CN2C(=O)c2cccc(C(C)=NNC(=N)N)c2)c1 [MES 10848, Bisguanylhydrazone of (S)-2-(3-acetylbenzoyl)-N-(3-acetylphenyl)tetrahydro-isoquinoline-3-carboxamide]	10 (≈ 5.53 µg/mL)	6 µM	3	> 100	100 (≈ 55.3 µg/mL)	–	–	–	–
CC(=NNC(=N)N)c1cccc(NC(=O)[C@H](Cc2ccc(-c3ccccc3)cc2)NC(=O)c2ccccc2)c1 [MES 10910, Guanylhydrazone of (S)-1-benzoyl-N-(3-acetylphenyl) biphenylalaninamide]	–	–	7	–	–	–	–	–	–
CC(=NNC(=N)N)c1cccc(NC(=O)[C@H](CCc2ccccc2)NC(=O)c2cccc(I)c2)c1 [MES 10914, Guanylhydrazone of (S)-1-(3-iodobenzoyl)-N-(3-acetylphenyl) homophenyl-alaninamide]	–	–	6	–	–	–	–	–	–
CC(=NNC(=N)N)c1cccc(NC(=O)c2cccc(-c3ccccc3)c2)c1 [MES 10915, Guanylhydrazone of N-(3-acetylphenyl)-3-biphenylcarboxamide]	–	10 µM	–	–	–	16	–	–	–
CC(=NNC(=N)N)c1cccc(NC(=O)[C@@H]2CCCN2C(=O)c2cccc(C(C)=NNC(=N)N)c2)c1 [MES 10926, Bisguanylhydrazone of (S)-1-(3-acetylbenzoyl)-N-(3-acetylphenyl) prolinamide]	30 (≈ 14.7 µg/mL)	100 µM	43	> 100	80 (≈ 39.2 µg/mL)	–	–	–	–
CC(=NNC(=N)N)c1cccc(NC(=O)c2ccc(-c3ccccc3)cc2)c1 [MES 10938, Guanylhydrazone of N-(3-acetylphenyl)-4-biphenylcarboxamide]	–	–	80	–	–	–	–	–	–
CC(=NNC(=N)N)c1ccc(NC(=O)c2ccc(C(C)=NNC(=N)N)cc2)cc1 [MES 10948, Bisguanylhydrazone of 4-acetyl-N-(4-acetylphenyl)benzamide]	0.3 (≈ 0.118 µg/mL)	2 µM and 1 µM	3	> 100	3 (≈ 1.18 µg/mL)	–	–	–	–
CC(=NNC(=N)N)c1cccc(NC(=O)Nc2cccc(C(C)=NNC(=N)N)c2)c1 [MES 10949, Bisguanylhydrazone of N,N-bis(3-acetylphenyl)urea]	30 (≈ 12.3 µg/mL)	30 µM	6	> 100	100 (≈ 40.8 µg/mL)	–	–	–	–
CC(=NNC(=N)N)c1ccc(NC(=O)Nc2ccc(C(C)=NNC(=N)N)cc2)cc1 [MES 10950, Bisguanylhydrazone of N,N′-bis(4-acetylphenyl)urea]	10 (≈ 4.08 µg/mL)	7 µM	6	> 100	30 (≈ 12.3 µg/mL)	–	–	–	–
N=C1/C(=C/c2ccc(-c3ccc(C(=O)O)cc3)o2)C(=O)N=C2SC(c3ccccc3)=NN12 [MES 110392]	–	–	2	–	–	–	>100	100 (≈ 44.2 µg/mL)	–
CC(=O)Oc1cccc2ccc(/C=C/c3ccc(C(=O)O)cc3)nc12 [MES 110394]	–	–	9	–	–	–	–	10 (≈ 3.33 µg/mL)	>100− μM
N=C1/C(=C/c2ccc(-c3ccc(C(=O)O)cc3)o2)C(=O)N=C2SC(Cc3cccs3)=NN12 [MES 110410]	–	–	15	–	–	–	>100	30 (≈ 13.9 µg/mL)	–
O=C(O)c1ccc(-c2nc(-c3ccc(-c4nc(-c5ccc(C(=O)O)cc5)[nH]c4-c4ccccc4)cc3)c(-c3ccccc3)[nH]2)cc1 [MES 110417]	–	–	10	–	–	–	>100	30 (≈ 18.1 µg/mL)	–
O=C(O)c1ccc(-c2ccc(/C=C3\S/C(=N\c4ccccc4)N(c4ccccc4)C3=O)o2)cc1 [MES 110430]	–	–	7	–	–	–	>100	30 (≈ 14 µg/mL)	–
